From paper PMC6838151 (Scientific Reports, 2019)
≈ marks a conversion by molar mass, not a printed value. Like-named read-outs stand apart in the source and are kept apart here.

Key:
[1] = Cytotoxicity IC50, TOX-8 resazurin assay, hASCs, 24 h; format: cell-based, human; settings: female, human
Protocol: Human Adipose Tissue-derived Stem Cells (hASCs) were isolated from subcutaneous adipose tissue fragments harvested from non-diabetic female donors (age range 33–38, n = 2) during standard surgical procedure of total hip arthroplasty. Immediately after collection of tissue, the samples were placed in sterile tissue-transport medium (Hank’s Balanced Salt Solution (HBSS) supplemented with 1% Penicillin/Streptomycin/Amphotericin B solution (P/S/A). Mesenchymal stromal cell isolation was performed using enzymatic digestion of extracellular matrix with collagenase type I. Before digestion, tissue specimens were washed twice with HBSS and incubated in collagenase type I solution (1 mg/mL) at 37 °C for 40 min. The digest was subsequently centrifuged (1200 × g; 10 minutes; room temperature) and the cell pellet was resuspended in Dulbecco’s modified Eagle’s medium (DMEM) with Nutrient F-12 Ham, 10% of Fetal Bovine Serum (FBS), and 1% of P/S/A, transferred to a culture flask, and kept in culture under optimal conditions (37 °C in a humidified atmosphere of 5% CO2). The medium was refreshed every 2–3 days. At 80–90% confluence, the cells were passaged using trypsin solution (TrypLE Express, Life Technologies, California, USA). At passage 3, hASCs were collected and cellular phenotype was confirmed by the high expression of markers CD44, CD29, CD73, CD105 and low expression of CD45. Moreover, the trilineage differentiation capacity of ASCs was confirmed as previously described.
The IC50 values were determined using in vitro Toxicology TOX-8 Assay Kit (resazurin based) according to the manufacturer’s protocol. For this assay, cells were seeded in a 96-well plate at a density of 5 × 10^3 cells/well. The cells were pre-incubated in drug-free complete medium for 24 h before adding various concentrations of the compounds to be investigated. Stock solutions of the compounds were prepared in DMSO following serial dilutions in DMEM with Nutrient F-12 Ham complete medium. The cells exposure period was 24 h. After that time media were replaced with 10% v/v resazurin dye solution in fresh complete culture medium. Incubation was carried out for 2 h at 37 °C in the CO2 incubator. Reduction of the dye was measured spectrophotometrically at 600 nm and 690 nm reference wavelength (Epoch, Biotek). Absorbance measurements allowed the determination of viable treated cells relative to untreated controls using the inflection point of a dose-response graph. IC50 values were estimated as duplicates of triplicate readings in two independent experiments.

C. albicans B4 = experiment: microbe, parasite or virus in culture; format: cell-based, Candida albicans; settings: for MIC50: Candida albicans, B4, 48 h; for times higher resistance of B4 than B3: B4 vs B3
From the text: The C. albicans CAF2-1 (Genotype/Description: ura3Δ::imm434/URA3[89]) and DSY1050 (Genotype/Description: cdr1Δ::hisG/cdr1Δ::hisG/cdr2Δ::hisG/cdr2Δ::hisG/mdr1Δ::hisG-URA3-hisG/mdr1Δ::hisG[90]) strains used in this study were generous gift from D. Sanglard (Lausanne, Switzerland)[91],[92] whereas C. albicans B3 and Gu4 (Genotype/Description: clinical isolates fluconazole sensitive)[93]), B4 (Genotype/Description: Clinical isolate fluconazole resistant due to the overexpression of MDR1[93]) and Gu5 (Genotype/Description: Clinical isolate fluconazole resistant due to the overexpression of CDR1 and CDR2[93]) were a generous gift from prof. S. Milewski (Gdańsk, Poland)[94] and prof. J. Morschhäuser (Wurzburg, Germany)[93]. All strains were grown at 37 °C on Sabouraud medium (Biomerieux).
The antifungal activity was determined on the 96-well polystyrene microtiter plates (Sarstedt) according to Clinical and Laboratory Standards Institute M27-A3[95]. […] The compounds were dissolved in DMSO (10 mM) and then serially diluted in RPMI-1640 (ThermoFisher) medium to obtain the final concentration range. Inocula of all strains were prepared as suspensions with turbidity of 0.5 McFarland standard in sterile 0.85% saline and diluted in RPMI-1640. After inoculation, each well contained appr. 5 × 10^2 CFU/mL. The plates were cultivated for 48 h at 37 °C. Optical density was measured at A490nm using a microplate reader ASYS UVM 340 (Biogenet).

[2] = test system: hASCs (p53, p21, BAX, BCL-2 transcripts); experiment: Apoptosis-related transcripts by qRT-PCR in hASCs; format: cell-based, human; settings: 20 µM, 24 h; for expression of p53 gene / expression of p21 transcript / relative expression level of BAX / relative expression level of BCL-2: hASCs; for expression of p53 gene: vs control cells; for expression of p21 transcript: vs control group, p < 0.001; for relative expression level of BAX / relative expression level of BCL-2: vs control, differences not significant
Protocol: Cellular apoptosis level was assessed using quantitative reverse transcriptase real-time polymerase chain reaction (qRT-PCR). First, the cells were seeded in a 24-well plate at a concentration of 3 × 10^4 cells/well in DMEM with Nutrient F-12 Ham complete medium and left in the CO2 incubator overnight to allow cells to attach. […] After 24 h of challenge with the compounds, the cells were homogenized with TRI Reagent and total RNA was isolated by phenol-chloroform extraction and ethanol precipitation. RNA purity and quantity were measured at a wavelength of 260 and 280 nm (Epoch, Biotek). Genomic DNA was removed with DNase I, RNase-free ([…]) (Thermo Scientific, Poland) and cDNA was synthesized using RevertAid First Strand cDNA Synthesis Kit (Thermo Scientific, Poland). 150 ng of total RNA served as a template for a single reaction using T100 Thermo Cycler (Bio-Rad, USA). The expression levels of p53 tumor suppressor, cyclin dependent kinase inhibitor 1A (p21), apoptosis regulators BAX and BCL-2 were determined. qRT-PCR was performed on a CFX Connect^TM Real-Time PCR Detection System (Bio-Rad) using SensiFast SYBR & Fluorescein Kit (Bioline, Cincinnati, OH, USA) and primer pairs as listed in Table S4 in ESI. 500 nM of specific primers and 1 µL of cDNA in a 10 µL final volume were applied in each reaction. The quantitative expression of the genes was calculated by the 2^−ΔΔCT method using GAPDH as housekeeping genes.
Statistical analysis was performed with GraphPad Prism 5 software (San Diego, USA). All data values are presented as mean ± SD, measured in triplicates or more. Statistical significance between groups was determined using two-way ANOVA grouped analysis.

HepaRG cells = settings: cited from earlier work
C. albicans CAF2-1 = experiment: microbe, parasite or virus in culture; format: cell-based, Candida albicans; settings: for effect of combination with higher Flc concentrations: KeP (0.39 uM) / KeOP (1.56 uM) combined with 3.25 and 6.25 uM Flc, CAF2-1
Protocol: The synergistic effects of KeOP/KeP with Flc were determined using the M27-A3 method with modifications. Flc and KeOP/KeP stock solutions in DMSO (10 mM) were (alone and simultaneously) diluted in RPMI-1640 medium to obtain final concentrations of^1/8; ^1/4; ^1/2; 1 × MIC50 towards C. albicans CAF2-1 strain in microdilution sterile plates (Sarstedt). Statistical significance analysis was performed using Student’s t-test ([…], unpaired) comparing viability in the presence of corresponding Flc concentrations with/without KeOP/KeP.

[3] = hASCs, TOX-8 assay, 24 h, read-out: IC50 (cytotoxicity, hASCs viability)
[4] = Candida albicans, CAF21, read-out: Viability of C. albicans CAF2-1

SMILES	IC50 at 24 h [1, 3] [µM]	MIC50 (C. albicans B4) [µM]	induction of apoptosis in hASC cultures [2]	expression of p53 gene [2]	expression of p21 transcript [2]	concentration at which cytotoxicity started (HepaRG cells) [µM]	times higher resistance of B4 than B3 (C. albicans B4)	IC50 at 24 h ([1]; IC50 (cytotoxicity, hASCs viability)) [µM]	relative expression level of BAX [2]	relative expression level of BCL-2 [2]	MIC50 of Flc in combination (C. albicans CAF2-1; C. albicans CAF2-1, with KeP (0.39 uM), reduced from 6.25 uM) [µM]	viability at 0.39 µM (C. albicans CAF2-1; [4]) [%]	viability at 0.78 µM (C. albicans CAF2-1; [4]) [%]	viability at 1.56 µM (C. albicans CAF2-1; [4]) [%]	effect of combination with higher Flc concentrations (C. albicans CAF2-1)	viability at 0.1 µM (C. albicans CAF2-1; [4]) [%]	viability at 0.2 µM (C. albicans CAF2-1; [4]) [%]
CC(=O)N1CCN(c2ccc(OCC3COC(Cn4ccnc4)(c4ccc(Cl)cc4Cl)O3)cc2)CC1 (centres unmarked) [Ke, ketoconazole, reference compound]	121	0.39 (≈ 0.207 µg/mL)	did not induce apoptosis	no significant changes	elevated expression	100	–	–	–	–	–	–	–	–	–	–	–
S=P(CN1CCN(c2ccc(OC[C@H]3CO[C@](Cn4ccnc4)(c4ccc(Cl)cc4Cl)O3)cc2)CC1)(c1ccccc1)c1ccccc1 [KeSP, Ph2P(S)CH2-Ke]	–	3.13 (≈ 2.25 µg/mL)	–	–	–	–	two	–	–	–	–	–	–	–	–	–	–
Clc1ccc([C@@]2(Cn3ccnc3)OC[C@H](COc3ccc(N4CCN(CP(=[Se])(c5ccccc5)c5ccccc5)CC4)cc3)O2)c(Cl)c1 [KeSeP, Ph2P(Se)CH2-Ke]	110	6.25 (≈ 4.79 µg/mL)	–	–	–	–	two	–	–	–	–	–	–	–	–	–	–
Clc1ccc([C@@]2(Cn3ccnc3)OC[C@H](COc3ccc(N4CCN(CP(c5ccccc5)c5ccccc5)CC4)cc3)O2)c(Cl)c1 (racemic) [KeP, Ph2PCH2-Ke]	–	3.13 (≈ 2.15 µg/mL)	did not induce apoptosis	no significant changes	elevated expression	–	eight	37.6	higher	higher	1.56	115 ± 9.06	102 ± 1.98	96.8 ± 3.21	fungicidal effect	–	–
O=P(CN1CCN(c2ccc(OC[C@H]3CO[C@](Cn4ccnc4)(c4ccc(Cl)cc4Cl)O3)cc2)CC1)(c1ccccc1)c1ccccc1 (racemic) [KeOP, Ph2P(O)CH2-Ke]	–	3.13 (≈ 2.2 µg/mL)	did not induce apoptosis	no significant changes	elevated expression	–	two	–	higher	higher	–	91.2 ± 10.7	–	–	fungicidal effect	102 ± 2.22	93.9 ± 7.22
